From ChEMBL document CHEMBL6092222 (J Med Chem, 2024) come the findings set out here.

In brackets after ≈: the same amount, converted by molar mass.

The nature of data set [1]: Chemical stability of compound in 0.1 M HCl at pH 1 at 37 degreeC assessed as half life measured for 24 hrs by reversed phase-HPLC analysis. The class given is physicochemical.
Data set [2] in a line: Chemical stability of compound in acetate buffer at pH 4 at 37 degreeC assessed as half life measured for 24 hrs by reversed phase-HPLC analysis. The class given is physicochemical.
The nature of data set [3]: Chemical stability of compound in phosphate buffer at pH 6.5 at 37 degreeC assessed as half life measured for 24 hrs by reversed phase-HPLC analysis. Format: physicochemical.
A short description of data set [4]: Prodrug conversion in Pentagastrine-pretreated Sprague-Dawley rat assessed as Cmax of 6-(cyclopropanecarboxamido)-4-((2-methoxy-3-(2-methyl-2H-tetrazol-5-yl)phenyl)amino)-N-(methyl-d3)nicotinamide metabolite at 10 mg/kg, po measured for 24 hrs by UPLC-MS/MS analysis. The class given is ADME, organism-based. The settings on record: in vivo.
A short description of data set [5]: Prodrug conversion in Famotidine-pretreated Sprague-Dawley rat assessed as Cmax of 6-(cyclopropanecarboxamido)-4-((2-methoxy-3-(2-methyl-2H-tetrazol-5-yl)phenyl)amino)-N-(methyl-d3)nicotinamide metabolite at 10 mg/kg, po measured for 24 hrs by UPLC-MS/MS analysis. Format: ADME, organism-based. The conditions noted are these: in vivo.
The nature of data set [6]: Prodrug conversion in Pentagastrine-pretreated Sprague-Dawley rat assessed as Tmax of 6-(cyclopropanecarboxamido)-4-((2-methoxy-3-(2-methyl-2H-tetrazol-5-yl)phenyl)amino)-N-(methyl-d3)nicotinamide metabolite at 10 mg/kg, po measured for 24 hrs by UPLC-MS/MS analysis. Format: ADME, organism-based. The conditions noted are these: in vivo.
Data set [7] is described as follows: Prodrug conversion in Famotidine-pretreated Sprague-Dawley rat assessed as Tmax of 6-(cyclopropanecarboxamido)-4-((2-methoxy-3-(2-methyl-2H-tetrazol-5-yl)phenyl)amino)-N-(methyl-d3)nicotinamide metabolite at 10 mg/kg, po measured for 24 hrs by UPLC-MS/MS analysis. The class given is ADME, organism-based. The conditions noted are these: in vivo.
Data set [8] can be described thus: Prodrug conversion in Pentagastrine-pretreated Sprague-Dawley rat assessed as AUC (total) of 6-(cyclopropanecarboxamido)-4-((2-methoxy-3-(2-methyl-2H-tetrazol-5-yl)phenyl)amino)-N-(methyl-d3)nicotinamide metabolite at 10 mg/kg, po measured for 24 hrs by UPLC-MS/MS analysis. Format: ADME, organism-based. The settings on record: in vivo.
Data set [9] can be described thus: Prodrug conversion in Famotidine-pretreated Sprague-Dawley rat assessed as AUC (total) of 6-(cyclopropanecarboxamido)-4-((2-methoxy-3-(2-methyl-2H-tetrazol-5-yl)phenyl)amino)-N-(methyl-d3)nicotinamide metabolite at 10 mg/kg, po measured for 24 hrs by UPLC-MS/MS analysis. Format: ADME, organism-based. The settings on record: in vivo.
The nature of data set [10]: physchem. The settings on record: aqueous buffer, pH 1.
Description: Solubility of compound in aqueous buffer at pH 1 at 25 degreeC by reversed phase-HPLC analysis
Data set [11] is described as follows: physchem. The settings on record: aqueous buffer, pH 4.
Description: Solubility of compound in aqueous buffer at pH 4 at 25 degreeC by reversed phase-HPLC analysis
Data set [12] can be described thus: physchem. The settings on record: aqueous buffer, pH 6.5.
Description: Solubility of compound in aqueous buffer at pH 6.5 at 25 degreeC by reversed phase-HPLC analysis
Data set [13] can be described thus: Solubility of compound in FeSSIF at pH 5 by reversed-phase UPLC analysis. The class given is physicochemical.
The nature of data set [14]: Solubility of compound in FaSSIF at pH 6.5 by reversed-phase UPLC analysis. The class given is physicochemical.
Data set [15] has as its target Intestinal-type alkaline phosphatase (Homo sapiens, UniProt P09923). In words: Prodrug conversion in tris buffer at pH 7.4 assessed as intestinal recombinant human ALP-mediated 6-(cyclopropanecarboxamido)-4-((2-methoxy-3-(2-methyl-2H-tetrazol-5-yl)phenyl)amino)-N-(methyl-d3)nicotinamide metabolite formation by measuring half life of metabolite at 1 uM incubated for 30 mins by UPLC-MS/MS analysis. The conditions noted are these: pH 7.4, 0.5 h. The class given is ADME.

In data set [16] the target is Intestinal-type alkaline phosphatase 1 (Rattus norvegicus, UniProt P15693). In words: Prodrug conversion in tris buffer at pH 7.4 assessed as intestinal recombinant rat ALP-mediated 6-(cyclopropanecarboxamido)-4-((2-methoxy-3-(2-methyl-2H-tetrazol-5-yl)phenyl)amino)-N-(methyl-d3)nicotinamide metabolite formation by measuring half life of metabolite at 1 uM incubated for 30 mins by UPLC-MS/MS analysis. The class given is ADME. The conditions noted are these: pH 7.4, 0.5 h.
Chain of Intestinal-type alkaline phosphatase 1 (P15693 whole entry): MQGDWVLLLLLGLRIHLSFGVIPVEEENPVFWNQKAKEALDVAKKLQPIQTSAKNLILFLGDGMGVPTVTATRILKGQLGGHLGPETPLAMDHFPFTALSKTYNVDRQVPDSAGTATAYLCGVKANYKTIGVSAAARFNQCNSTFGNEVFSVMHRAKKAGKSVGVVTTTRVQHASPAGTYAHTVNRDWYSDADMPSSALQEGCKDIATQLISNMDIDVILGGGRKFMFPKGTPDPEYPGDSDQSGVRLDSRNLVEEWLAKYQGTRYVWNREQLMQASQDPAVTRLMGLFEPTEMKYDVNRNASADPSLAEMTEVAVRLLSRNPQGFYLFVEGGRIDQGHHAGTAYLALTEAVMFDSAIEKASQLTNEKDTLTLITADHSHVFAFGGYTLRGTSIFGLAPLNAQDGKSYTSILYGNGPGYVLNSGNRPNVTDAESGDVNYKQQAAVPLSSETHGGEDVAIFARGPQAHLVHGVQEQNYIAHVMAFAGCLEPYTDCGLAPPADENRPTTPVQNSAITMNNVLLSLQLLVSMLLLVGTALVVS

The nature of data set [17]: Prodrug conversion in Sprague-Dawley rat assessed as Cmax of 6-(cyclopropanecarboxamido)-4-((2-methoxy-3-(2-methyl-2H-tetrazol-5-yl)phenyl)amino)-N-(methyl-d3)nicotinamide metabolite at 5 mg/kg, po measured for 24 hrs by UPLC-MS/MS analysis. Format: ADME, organism-based. The conditions noted are these: in vivo.
Data set [18] in a line: Cmax in Sprague-Dawley rat at 5 mg/kg, po measured for 24 hrs by UPLC-MS/MS analysis. The class given is ADME, organism-based. The conditions noted are these: in vivo.
The nature of data set [19]: Prodrug conversion in Sprague-Dawley rat assessed as Cmax of 6-(cyclopropanecarboxamido)-4-((2-methoxy-3-(2-methyl-2H-tetrazol-5-yl)phenyl)amino)-N-(methyl-d3)nicotinamide metabolite at 25 mg/kg, po measured for 24 hrs by UPLC-MS/MS analysis. The settings on record: in vivo. Format: ADME, organism-based.
Data set [20] in a line: Cmax in Sprague-Dawley rat at 25 mg/kg, po measured for 24 hrs by UPLC-MS/MS analysis. The class given is ADME, organism-based. The settings on record: in vivo.
Data set [21] can be described thus: Prodrug conversion in Sprague-Dawley rat assessed as Cmax of 6-(cyclopropanecarboxamido)-4-((2-methoxy-3-(2-methyl-2H-tetrazol-5-yl)phenyl)amino)-N-(methyl-d3)nicotinamide metabolite at 150 mg/kg, po measured for 24 hrs by UPLC-MS/MS analysis. Format: ADME, organism-based. The settings on record: in vivo.
The nature of data set [22]: Prodrug conversion in Sprague-Dawley rat assessed as Tmax of 6-(cyclopropanecarboxamido)-4-((2-methoxy-3-(2-methyl-2H-tetrazol-5-yl)phenyl)amino)-N-(methyl-d3)nicotinamide metabolite at 5 mg/kg, po measured for 24 hrs by UPLC-MS/MS analysis. The class given is ADME, organism-based. The conditions noted are these: in vivo.
A short description of data set [23]: Tmax in Sprague-Dawley rat at 5 mg/kg, po measured for 24 hrs by UPLC-MS/MS analysis. The settings on record: in vivo. Format: ADME, organism-based.
Data set [24] is described as follows: Prodrug conversion in Sprague-Dawley rat assessed as Tmax of 6-(cyclopropanecarboxamido)-4-((2-methoxy-3-(2-methyl-2H-tetrazol-5-yl)phenyl)amino)-N-(methyl-d3)nicotinamide metabolite at 25 mg/kg, po measured for 24 hrs by UPLC-MS/MS analysis. The class given is ADME, organism-based. The conditions noted are these: in vivo.
The nature of data set [25]: Tmax in Sprague-Dawley rat at 25 mg/kg, po measured for 24 hrs by UPLC-MS/MS analysis. The settings on record: in vivo. Format: ADME, organism-based.
Data set [26] can be described thus: Prodrug conversion in Sprague-Dawley rat assessed as Tmax of 6-(cyclopropanecarboxamido)-4-((2-methoxy-3-(2-methyl-2H-tetrazol-5-yl)phenyl)amino)-N-(methyl-d3)nicotinamide metabolite at 150 mg/kg, po measured for 24 hrs by UPLC-MS/MS analysis. The class given is ADME, organism-based. The conditions noted are these: in vivo.
Data set [27] in a line: Prodrug conversion in Sprague-Dawley rat assessed as AUC of 6-(cyclopropanecarboxamido)-4-((2-methoxy-3-(2-methyl-2H-tetrazol-5-yl)phenyl)amino)-N-(methyl-d3)nicotinamide metabolite at 5 mg/kg, po measured for 24 hrs by UPLC-MS/MS analysis. Format: ADME, organism-based. The conditions noted are these: in vivo.
The nature of data set [28]: AUC in Sprague-Dawley rat at 5 mg/kg, po measured for 24 hrs by UPLC-MS/MS analysis. Format: ADME, organism-based. The conditions noted are these: in vivo.
Data set [29] in a line: Prodrug conversion in Sprague-Dawley rat assessed as AUC of 6-(cyclopropanecarboxamido)-4-((2-methoxy-3-(2-methyl-2H-tetrazol-5-yl)phenyl)amino)-N-(methyl-d3)nicotinamide metabolite at 25 mg/kg, po measured for 24 hrs by UPLC-MS/MS analysis. The class given is ADME, organism-based. The conditions noted are these: in vivo.
Data set [30] in a line: AUC in Sprague-Dawley rat at 25 mg/kg, po measured for 24 hrs by UPLC-MS/MS analysis. Format: ADME, organism-based. The conditions noted are these: in vivo.
The nature of data set [31]: Prodrug conversion in Sprague-Dawley rat assessed as AUC of 6-(cyclopropanecarboxamido)-4-((2-methoxy-3-(2-methyl-2H-tetrazol-5-yl)phenyl)amino)-N-(methyl-d3)nicotinamide metabolite at 150 mg/kg, po measured for 24 hrs by UPLC-MS/MS analysis. The conditions noted are these: in vivo. Format: ADME, organism-based.

Chain of Intestinal-type alkaline phosphatase (P09923 whole entry): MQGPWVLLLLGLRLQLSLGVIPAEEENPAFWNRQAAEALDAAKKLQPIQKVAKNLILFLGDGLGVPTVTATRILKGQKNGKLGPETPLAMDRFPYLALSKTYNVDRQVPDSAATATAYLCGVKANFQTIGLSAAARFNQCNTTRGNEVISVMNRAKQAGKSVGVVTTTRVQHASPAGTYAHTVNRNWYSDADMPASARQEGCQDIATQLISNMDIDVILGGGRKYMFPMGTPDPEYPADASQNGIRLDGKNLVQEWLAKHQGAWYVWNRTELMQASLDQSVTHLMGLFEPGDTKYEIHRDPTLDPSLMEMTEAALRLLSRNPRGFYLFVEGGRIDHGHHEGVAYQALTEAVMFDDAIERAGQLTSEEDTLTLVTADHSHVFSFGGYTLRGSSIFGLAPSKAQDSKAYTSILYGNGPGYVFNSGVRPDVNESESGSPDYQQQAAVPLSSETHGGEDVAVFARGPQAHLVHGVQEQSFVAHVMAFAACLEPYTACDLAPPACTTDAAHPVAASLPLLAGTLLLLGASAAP

Usually half-life stands for how long it takes for the measured level to halve. As usually defined, the Cmax is the highest concentration seen after dosing. One may read the Tmax as the time at which the peak concentration occurs. The term AUC denotes concentration integrated over time. What is called solubility is the dissolved amount per volume that the medium holds. Low readings indicate little dissolved substance, high ones much dissolved substance. With `[2H]C([2H])([2H])NC(=O)c1cn(COP(=O)([O-])[O-])/c(=N/C(=O)C2CC2)cc1Nc1cccc(-c2nnn(C)n2)c1OC.[Na+].[Na+]`, the half-life in data set [1] was greater than 500 h; in data set [2] it was 376 h; in [3], 177 h. Also, the Cmax in data set [4] came out at 11.6 µM; in data set [5], 8.1 µM. In addition, the values for the Tmax in [6] and in [7] were 2.1 h and 2.5 h, respectively. The exposure (AUC) in data set [8] worked out at 79 µM·h; in [9], 58 µM·h. The solubility in “physchem [10]” was 10 µg/mL; in the data set “physchem [11]” it was 1 µg/mL; in the data set “physchem [12]” it was 1470 µg/mL.

For `[2H]C([2H])([2H])NC(=O)c1cn(COP(=O)(O)O)/c(=N/C(=O)C2CC2)cc1Nc1cccc(-c2nnn(C)n2)c1OC`, the solubility was found to be 100 µg/mL (≈ 187 µM) in data set [13]; 1630 µg/mL (≈ 3040 µM) in [14]; 16 µg/mL (≈ 29.9 µM) in “physchem [10]”; 27 µg/mL (≈ 50.4 µM) in the data set “physchem [11]”; 660 µg/mL (≈ 1230 µM) in “physchem [12]”. For the same compound, the half-life in [1] was greater than 500 h; in [2], 286 h; in [3], 67.1 h. In addition, the Cmax in data set [4] is 11.4 µM; in data set [5], 12.4 µM; in data set [17], 4.91 µM; in data set [18] it was “Below_limit_of_detection”; in [19], 13 µM; in data set [20], “Below_limit_of_detection”. Further, the Cmax in data set [21] was 58.2 µM. Moreover, the time of peak concentration (Tmax) in [6] is 1 h; in data set [7] it was 1.5 h; in data set [22], 0.5 h; in [23] it was “Below_limit_of_detection”; in [24], 3 h; in data set [25], “Below_limit_of_detection”. In addition, the Tmax in data set [26] amounted to 3 h. Further, the AUC in data set [8] is 63 µM·h; in [9] it was 69 µM·h; in data set [27], 19.2 µM·h; in data set [28] it was “Below_limit_of_detection”; in [29] it was 96.9 µM·h; in data set [30], “Below_limit_of_detection”. Besides, in data set [31], the AUC amounted to 804.3 µM·h. Besides, the t1/2 in data set [15] and in data set [16] was less than 5 min each time.
